Peptide text beside a SMILES is read from it. * marks the point of attachment. X1 = C[N+](C)(CCCC(=O)*)CCCS(=O)(=O)[O-]

For 4 compounds, solubility results are on record in patent publication EP4800020A2, “ZWITTERIONIC REAGENTS” (Siemens Healthcare Diagnostics, Inc., priority 2010, dated 2011).

This data set in a line: Aqueous solubility of zwitterion-modified hydrophobic peptides in de-ionized water. The format is physicochemical. The settings on record: concentration giving a clear solution, peptide labeled at the α-amino group with Z3-PFP. On the procedure: Specifically, four representative hydrophobic peptides, penta(phenylalanine), a tetrapeptide with the sequence Phe-Gly-Gly-Phe, penta(leucine) and penta(isoleucine) were all labeled at the α-amino group with the amine-reactive, zwitterionic reagent Z3-PFP (compound 2c in Figure 1). One such labeling experiment is illustrated in Example 12. The zwitterion-modified peptides were purified by chromatography and their aqueous solubility was assessed by dissolving them in de-ionized water at concentrations that gave clear homogenous solutions. […] Penta(phenylalanine) modified by the zwitterion-containing compound Z3-PFP, compound 2c, dissolved in water and provided a clear solution at a concentration of ~0.5 mM.
As usually defined, the solubility is how much of the substance goes into solution per volume. In turn, `C[N+](C)(CCCC(=O)N[C@@H](Cc1ccccc1)C(=O)N[C@@H](Cc1ccccc1)C(=O)N[C@@H](Cc1ccccc1)C(=O)N[C@@H](Cc1ccccc1)C(=O)N[C@@H](Cc1ccccc1)C(=O)O)CCCS(=O)(=O)[O-]` (X1-FFFFF-OH) displayed a solubility not below 500 µM.
To `CC(C)C[C@H](NC(=O)[C@H](CC(C)C)NC(=O)[C@H](CC(C)C)NC(=O)[C@H](CC(C)C)NC(=O)[C@H](CC(C)C)NC(=O)CCC[N+](C)(C)CCCS(=O)(=O)[O-])C(=O)O` (X1-LLLLL-OH) belongs not below 100 µM; to `CC[C@H](C)[C@H](NC(=O)[C@@H](NC(=O)[C@@H](NC(=O)[C@@H](NC(=O)[C@@H](NC(=O)CCC[N+](C)(C)CCCS(=O)(=O)[O-])[C@@H](C)CC)[C@@H](C)CC)[C@@H](C)CC)[C@@H](C)CC)C(=O)O` (X1-IIIII-OH), not below 100 µM.
Consider `C[N+](C)(CCCC(=O)N[C@@H](Cc1ccccc1)C(=O)NCC(=O)NCC(=O)N[C@@H](Cc1ccccc1)C(=O)O)CCCS(=O)(=O)[O-]` (X1-FGGF-OH), for which the solubility is not below 3000 µM.
